Legend:
[1] = test system: NIMIN-2 mRNA; settings: cited from earlier work
[2] = test system: NIMIN-1 mRNA; settings: cited from earlier work
[3] = test system: NIMIN-2 promoter; test: GUS reporter gene activity in leaf discs of transgenic lines floated on inducer; type: cell-based, Arabidopsis thaliana; settings: leaf discs floated on 1 mM SA or 140 mg/l Bion, 3 days, protein extracts; FIG. 3
Protocol: (§1) For characterizing the influence of chemicals on the activity of the NIMIN promoters, leaf discs were punched from the transgenic lines NIMIN1-GUS and NIMIN2-GUS. As a control, PR-1a promoter fusions were used. The leaf discs were floated on 1 mM SA, 140 mg/l Bion (a functional analogue to salicylic acid) or water. After 3 days, protein extracts were prepared and the activity of the GUS reporter gene in the extracts was assayed. The resulting reporter gene activities were 5 times higher In the NIMIN-2 promoter fusions than In PR-1a promoter fusions (cf. FIG. 3). Further, leaf discs from the transgenic lines NIMIN1-GUS and NIMIN2-GUS were incubated with different salicylic acid concentrations.

[4] = test system: NIMIN promoters; test: GUS reporter gene activity in leaf discs incubated with different salicylic acid concentrations; type: cell-based, Arabidopsis thaliana; settings: leaf discs of NIMIN1-GUS and NIMIN2-GUS lines; FIGS. 4 and 5
Protocol: as §1

CSC(=O)c1cccc2nnsc12 [Bion]
inducibility of NIMIN-2 mRNA [1]: inducible
inducibility of NIMIN-1 mRNA [2]: inducible
reporter gene (GUS) activity in NIMIN-2 promoter fusions relative to PR-1a promoter fusions [3]: 5 times

O=C(O)c1ccccc1O [salicylic acid]
inducibility of NIMIN-2 mRNA [1]: inducible
inducibility of NIMIN-1 mRNA [2]: inducible
activity of the NIMIN promoters versus inducer concentration [4]: depends on the salicyclic acid concentration
reporter gene (GUS) activity in NIMIN-2 promoter fusions relative to PR-1a promoter fusions [3]: 5 times

— patent US20060242728A1, “Chemically-inducible promotors for the expression of proteins in plants” (priority 2003, published 2006)
